The test system of test [1] is STAT5 phosphorylation by GMCSF in TF-1 cells. As to the kind of experiment: JAK cellular assay: STAT5 phosphorylation by GMCSF in TF-1 cells (HTRF). The test is classed as cell-based. The following applies: Homo sapiens; TF-1 cells, GMCSF 5 ng/ml, pSTAT5 HTRF; read-out: Cell Based Assay (μM) TF-1/GMCSF/pSTAT5. The gist of the method: (§1)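 Phospho-STAT3 (IL-6, 30 ng/ml) and phospho-STAT5 (GMCSF, 5 ng/ml) read by HTRF in lysates after 20 min cytokine exposure, minus unstimulated-cell background. Cells were serum-starved overnight, plated at 120,000/well, given compound 30 min at 37 °C beforehand; DMSO 0.2% final.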

Test [2] addresses T1, Recombinant JAK3 (Homo sapiens, UniProt P52333).
T1 construct: purchased Carna Biosciences
T1 sequence (P52333 1-1124): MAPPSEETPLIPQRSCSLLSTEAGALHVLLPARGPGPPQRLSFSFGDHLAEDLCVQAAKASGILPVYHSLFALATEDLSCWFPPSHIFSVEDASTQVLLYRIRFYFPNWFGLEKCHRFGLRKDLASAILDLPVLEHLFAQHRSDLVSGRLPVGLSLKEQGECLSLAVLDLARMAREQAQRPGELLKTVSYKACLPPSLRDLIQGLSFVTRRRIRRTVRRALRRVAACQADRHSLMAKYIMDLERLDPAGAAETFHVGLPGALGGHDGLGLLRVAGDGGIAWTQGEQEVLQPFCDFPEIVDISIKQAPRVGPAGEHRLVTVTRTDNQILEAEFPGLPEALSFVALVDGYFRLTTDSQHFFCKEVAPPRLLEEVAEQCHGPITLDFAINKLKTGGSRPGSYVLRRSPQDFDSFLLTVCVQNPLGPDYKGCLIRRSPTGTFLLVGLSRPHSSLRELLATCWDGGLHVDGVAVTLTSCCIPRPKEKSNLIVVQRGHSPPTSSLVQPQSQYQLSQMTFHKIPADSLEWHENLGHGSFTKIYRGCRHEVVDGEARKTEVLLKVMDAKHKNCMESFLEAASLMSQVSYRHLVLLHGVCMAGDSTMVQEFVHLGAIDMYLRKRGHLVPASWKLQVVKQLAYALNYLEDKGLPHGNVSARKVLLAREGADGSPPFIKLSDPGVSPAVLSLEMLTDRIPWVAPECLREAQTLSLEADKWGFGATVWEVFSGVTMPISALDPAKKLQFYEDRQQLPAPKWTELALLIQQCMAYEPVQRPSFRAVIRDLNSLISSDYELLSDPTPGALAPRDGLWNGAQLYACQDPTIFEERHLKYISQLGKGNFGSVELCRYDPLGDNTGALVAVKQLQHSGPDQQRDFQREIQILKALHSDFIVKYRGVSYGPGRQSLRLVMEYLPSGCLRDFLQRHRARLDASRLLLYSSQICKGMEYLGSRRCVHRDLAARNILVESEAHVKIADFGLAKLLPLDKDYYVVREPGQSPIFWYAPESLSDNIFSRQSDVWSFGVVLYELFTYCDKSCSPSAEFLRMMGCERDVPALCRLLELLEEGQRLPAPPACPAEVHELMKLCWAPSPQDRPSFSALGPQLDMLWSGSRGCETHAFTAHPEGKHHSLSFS
Briefly: JAK biochemical assay (LANCE Ultra TR-FRET), JAK3. To be noted: recombinant JAK3, TR-FRET; read-out: Biochemical Assay (μM) JAK3. In a few lines:
(§2)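 % inhibition relative to vehicle was derived from TR-FRET signal proportional to ULight-substrate phosphorylation. Reactions used recombinant kinase in HEPES pH 7.5 buffer containing EGTA, MgCl2, DTT and Tween-20.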
For orientation: Time-resolved FRET reads energy transfer from a long-lived donor to a nearby acceptor.

The target in test [3] is T2, Recombinant JAK1 (Homo sapiens, UniProt P23458).
T2 construct: purchased Carna Biosciences
As to the kind of experiment: JAK biochemical assay (LANCE Ultra TR-FRET), JAK1. To be noted: recombinant JAK1, TR-FRET; read-out: Biochemical Assay (μM) JAK1. The gist of the method: as §2

Test [4] deals with T3, Recombinant TYK2 (Homo sapiens, UniProt P29597).
T3 construct: purchased Carna Biosciences
Briefly: JAK biochemical assay (LANCE Ultra TR-FRET), TYK2. To be noted: recombinant TYK2, TR-FRET; read-out: Biochemical Assay (μM) TYK2. The gist of the method:
as §2

Test [5] deals with STAT3 phosphorylation by IL-6 in TF-1 cells. Briefly: JAK cellular assay: STAT3 phosphorylation by IL-6 in TF-1 cells (HTRF). In kind it is cell-based. The following applies: Homo sapiens, TF-1, TF-1 cells, IL-6 30 ng/ml, pSTAT3 HTRF; read-out: Cell Based Assay (μM) TF-1/IL-6/pSTAT3. In a few lines:
as §1

Test [6] deals with T4, Recombinant JAK2 (Homo sapiens, UniProt O60674).
T4 construct: purchased Carna Biosciences
Briefly: JAK biochemical assay (LANCE Ultra TR-FRET), JAK2. The following applies: recombinant JAK2, TR-FRET; read-out: Biochemical Assay (μM) JAK2. In a few lines:
as §2

T2 sequence (P23458 whole entry): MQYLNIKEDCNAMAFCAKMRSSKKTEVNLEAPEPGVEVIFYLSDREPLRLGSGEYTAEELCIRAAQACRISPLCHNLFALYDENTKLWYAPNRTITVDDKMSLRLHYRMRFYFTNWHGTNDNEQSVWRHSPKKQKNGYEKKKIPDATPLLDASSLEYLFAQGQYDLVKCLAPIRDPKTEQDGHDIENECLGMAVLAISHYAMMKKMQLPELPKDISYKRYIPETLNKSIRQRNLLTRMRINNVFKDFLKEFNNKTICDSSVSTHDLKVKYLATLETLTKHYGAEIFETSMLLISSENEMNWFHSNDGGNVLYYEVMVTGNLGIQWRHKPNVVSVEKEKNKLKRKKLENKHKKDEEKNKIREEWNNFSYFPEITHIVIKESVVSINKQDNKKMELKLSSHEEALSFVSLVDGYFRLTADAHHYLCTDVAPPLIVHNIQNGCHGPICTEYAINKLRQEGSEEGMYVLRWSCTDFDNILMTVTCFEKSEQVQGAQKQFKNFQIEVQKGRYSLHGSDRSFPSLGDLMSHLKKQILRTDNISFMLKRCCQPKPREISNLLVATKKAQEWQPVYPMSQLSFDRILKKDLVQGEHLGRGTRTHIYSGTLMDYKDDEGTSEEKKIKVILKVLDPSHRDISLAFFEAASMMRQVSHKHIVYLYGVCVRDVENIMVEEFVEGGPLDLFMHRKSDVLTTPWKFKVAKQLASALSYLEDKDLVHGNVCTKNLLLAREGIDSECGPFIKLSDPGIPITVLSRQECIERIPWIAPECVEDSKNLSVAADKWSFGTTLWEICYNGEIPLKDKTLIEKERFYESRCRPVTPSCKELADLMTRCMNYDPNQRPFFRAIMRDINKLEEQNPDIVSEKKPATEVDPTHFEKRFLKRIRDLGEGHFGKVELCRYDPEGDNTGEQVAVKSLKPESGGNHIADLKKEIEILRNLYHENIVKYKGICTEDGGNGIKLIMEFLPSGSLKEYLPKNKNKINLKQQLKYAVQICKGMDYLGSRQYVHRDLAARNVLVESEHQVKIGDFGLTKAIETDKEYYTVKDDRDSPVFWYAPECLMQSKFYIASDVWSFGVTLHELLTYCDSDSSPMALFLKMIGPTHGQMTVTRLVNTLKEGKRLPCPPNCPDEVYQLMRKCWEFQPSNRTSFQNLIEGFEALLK
T4 sequence (O60674 whole entry): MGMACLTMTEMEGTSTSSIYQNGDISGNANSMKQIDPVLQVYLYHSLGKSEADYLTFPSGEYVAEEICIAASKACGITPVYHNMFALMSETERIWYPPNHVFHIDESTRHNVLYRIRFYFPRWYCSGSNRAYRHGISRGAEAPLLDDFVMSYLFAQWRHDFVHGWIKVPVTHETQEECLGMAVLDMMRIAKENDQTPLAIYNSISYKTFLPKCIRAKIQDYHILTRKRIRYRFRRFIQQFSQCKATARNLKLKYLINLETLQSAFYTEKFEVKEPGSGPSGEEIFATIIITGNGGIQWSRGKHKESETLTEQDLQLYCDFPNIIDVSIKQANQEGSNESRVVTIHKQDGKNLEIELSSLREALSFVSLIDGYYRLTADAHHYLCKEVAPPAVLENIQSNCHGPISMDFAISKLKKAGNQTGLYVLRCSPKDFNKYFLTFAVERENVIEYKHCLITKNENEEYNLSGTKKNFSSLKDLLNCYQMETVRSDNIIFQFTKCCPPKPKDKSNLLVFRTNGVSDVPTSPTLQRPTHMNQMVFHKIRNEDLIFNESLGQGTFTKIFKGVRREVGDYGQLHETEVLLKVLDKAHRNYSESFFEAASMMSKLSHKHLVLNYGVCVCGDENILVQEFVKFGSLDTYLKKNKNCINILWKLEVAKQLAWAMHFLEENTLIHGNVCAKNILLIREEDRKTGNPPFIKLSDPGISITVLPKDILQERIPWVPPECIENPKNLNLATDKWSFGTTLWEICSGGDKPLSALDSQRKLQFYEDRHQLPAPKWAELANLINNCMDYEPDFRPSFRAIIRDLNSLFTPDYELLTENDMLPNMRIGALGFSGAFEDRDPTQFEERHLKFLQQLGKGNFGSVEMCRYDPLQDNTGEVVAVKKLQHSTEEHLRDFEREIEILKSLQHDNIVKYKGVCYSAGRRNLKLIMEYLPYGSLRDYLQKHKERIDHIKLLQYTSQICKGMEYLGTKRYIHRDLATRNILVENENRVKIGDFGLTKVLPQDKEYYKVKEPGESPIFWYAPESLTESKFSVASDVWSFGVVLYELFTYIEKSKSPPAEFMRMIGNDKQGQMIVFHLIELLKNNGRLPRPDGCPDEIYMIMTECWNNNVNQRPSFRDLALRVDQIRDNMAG
T3 sequence (P29597 whole entry): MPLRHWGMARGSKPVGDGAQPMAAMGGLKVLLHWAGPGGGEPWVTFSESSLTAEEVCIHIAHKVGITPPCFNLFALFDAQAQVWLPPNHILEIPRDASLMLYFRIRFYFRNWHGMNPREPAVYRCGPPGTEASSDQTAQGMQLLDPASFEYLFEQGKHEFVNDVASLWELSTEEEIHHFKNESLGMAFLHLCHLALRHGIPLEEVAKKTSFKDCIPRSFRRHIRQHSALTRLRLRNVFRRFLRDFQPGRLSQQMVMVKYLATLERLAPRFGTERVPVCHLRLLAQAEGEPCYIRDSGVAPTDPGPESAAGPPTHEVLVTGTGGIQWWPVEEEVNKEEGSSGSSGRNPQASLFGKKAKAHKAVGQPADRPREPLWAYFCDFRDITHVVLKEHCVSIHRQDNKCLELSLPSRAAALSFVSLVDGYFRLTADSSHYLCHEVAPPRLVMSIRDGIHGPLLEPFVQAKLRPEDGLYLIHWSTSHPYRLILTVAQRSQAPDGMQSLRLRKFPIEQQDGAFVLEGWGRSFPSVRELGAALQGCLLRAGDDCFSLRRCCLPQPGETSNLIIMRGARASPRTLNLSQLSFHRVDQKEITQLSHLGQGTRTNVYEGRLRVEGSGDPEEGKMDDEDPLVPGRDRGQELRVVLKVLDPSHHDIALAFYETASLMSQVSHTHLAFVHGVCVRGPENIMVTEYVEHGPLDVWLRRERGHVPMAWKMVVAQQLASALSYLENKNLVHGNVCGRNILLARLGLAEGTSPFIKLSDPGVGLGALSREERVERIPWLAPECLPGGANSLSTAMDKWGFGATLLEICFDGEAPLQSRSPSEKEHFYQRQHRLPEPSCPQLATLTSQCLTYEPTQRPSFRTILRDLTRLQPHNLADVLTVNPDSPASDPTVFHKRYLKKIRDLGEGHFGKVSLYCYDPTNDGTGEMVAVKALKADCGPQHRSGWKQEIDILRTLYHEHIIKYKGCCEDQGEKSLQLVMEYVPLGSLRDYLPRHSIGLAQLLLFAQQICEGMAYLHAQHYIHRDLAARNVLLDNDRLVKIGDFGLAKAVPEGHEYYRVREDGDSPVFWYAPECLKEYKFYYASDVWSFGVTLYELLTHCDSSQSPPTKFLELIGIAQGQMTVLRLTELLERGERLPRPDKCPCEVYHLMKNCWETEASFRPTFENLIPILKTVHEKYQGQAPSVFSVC

As to `FC(F)(F)C(CCN1CCOCC1)c1ccc(-n2cc(-c3ccnc4[nH]cnc34)cn2)nc1` (stereo not drawn) [Example 1201, 7-(1-(5-(1,1,1-trifluoro-4-morpholinobutan-2-yl)pyridin-2-yl)-1H-pyrazol-4-yl)-3H-imidazo[4,5-b]pyridine], the IC50 in test [1] was greater than 1 µM; in test [2], less than 0.1 µM; in test [3], less than 0.1 µM; in test [4], greater than 1 µM; in test [5], greater than 0.5 µM; in test [6], greater than 0.5 µM.

For `CS(=O)(=O)CC(c1ccc(-n2cc(-c3ccnc4[nH]cnc34)cn2)nc1)C(F)(F)F` (stereo not drawn) [Example 1138, 7-(1-(5-(1,1,1-trifluoro-3-(methylsulfonyl)propan-2-yl)pyridin-2-yl)-1H-pyrazol-4-yl)-3H-imidazo[4,5-b]pyridine], the IC50 is greater than 10 µM in test [1]; greater than 0.1 µM in test [2]; less than 0.1 µM in test [3]; greater than 1 µM in test [4]; greater than 1 µM in test [5]; greater than 0.1 µM in test [6].

Turning to `c1cc(-c2cnn(-c3ccc(CC4COC4)cn3)c2)c2nc[nH]c2n1` [Example 1081, 7-(1-(5-((oxetan-3-yl)methyl)pyridin-2-yl)-1H-pyrazol-4-yl)-3H-imidazo[4,5-b]pyridine], the IC50 is greater than 10 µM in test [1]; less than 0.5 µM in test [2]; less than 0.5 µM in test [3]; greater than 10 µM in test [4]; greater than 1 µM in test [5]; greater than 0.5 µM in test [6].

Take `N#CCOC(c1ccc(-n2cc(-c3ccnc4[nH]cnc34)cn2)nc1)C(F)(F)F` (stereo not drawn) [Example 1157, 2-(1-(6-(4-(3H-imidazo[4,5-b]pyridin-7-yl)-1H-pyrazol-1-yl)pyridin-3-yl)-2,2,2-trifluoroethoxy)acetonitrile]: the IC50 in test [1] was greater than 10 µM; in test [2] it was less than 0.1 µM; in test [3], less than 0.1 µM; in test [4], greater than 0.5 µM; in test [5] it was less than 1 µM; in test [6], less than 0.1 µM.

Consider `CS(=O)(=O)NCC(c1ccc(-n2cc(-c3ccnc4[nH]cnc34)cn2)nc1)C(F)(F)F` (stereo not drawn) [Example 1209], for which the IC50 in test [1] is greater than 1 µM; in test [2], less than 0.1 µM; in test [3] it was less than 0.1 µM; in test [4] it was greater than 1 µM; in test [5], greater than 0.75 µM; in test [6], less than 0.1 µM.

`COC(c1cccc(-n2cc(-c3ccnc4[nH]cnc34)cn2)n1)C(F)(F)F` (stereo not drawn) [Example 1171, 7-(1-(6-(2,2,2-trifluoro-1-methoxyethyl)pyridin-2-yl)-1H-pyrazol-4-yl)-3H-imidazo[4,5-b]pyridine]: the IC50 in test [1] was greater than 10 µM; in test [2] it was greater than 1 µM; in test [3] it was greater than 1 µM; in test [4], greater than 1 µM; in test [5], greater than 10 µM; in test [6] it was greater than 1 µM.

Take `OC(Cc1ccc(-n2cc(-c3ccnc4[nH]cnc34)cn2)nc1)C(F)(F)F` (stereo not drawn) [Example 1183, 3-(6-(4-(3H-imidazo[4,5-b]pyridin-7-yl)-1H-pyrazol-1-yl)pyridin-3-yl)-1,1,1-trifluoropropan-2-ol]: the IC50 in test [1] is greater than 1 µM; in test [2], greater than 0.1 µM; in test [3], greater than 0.1 µM; in test [4], greater than 1 µM; in test [5] it was 1 µM; in test [6], greater than 0.5 µM.

On to `CS(=O)(=O)Cc1ccc(-n2cc(-c3ccnc4[nH]cnc34)cn2)nc1` [Example 1080, 7-(1-(5-((methylsulfonyl)methyl)pyridin-2-yl)-1H-pyrazol-4-yl)-3H-imidazo[4,5-b]pyridine], for which the IC50 in test [1] is greater than 10 µM; in test [2], less than 0.5 µM; in test [3], 0.068 µM; in test [4], greater than 10 µM; in test [5] it was greater than 1 µM; in test [6], less than 0.5 µM.

Take `CC1CN(C(=O)n2cc(-c3ccnc4[nH]cnc34)cn2)CC1C#N` (stereo not drawn) [Example 1074, 1-(4-(3H-imidazo[4,5-b]pyridin-7-yl)-1H-pyrazole-1-carbonyl)-4-methylpyrrolidine-3-carbonitrile]: the IC50 was greater than 10 µM in test [1]; greater than 1 µM in test [2]; greater than 10 µM in test [3]; greater than 1 µM in test [4]; greater than 10 µM in test [5]; greater than 1 µM in test [6].

Regarding `N#CCc1csc(-n2cc(-c3ccnc4[nH]cnc34)cn2)n1` [Example 1076, 2-(2-(4-(3H-imidazo[4,5-b]pyridin-7-yl)-1H-pyrazol-1-yl)thiazol-4-yl)acetonitrile], the IC50 is greater than 10 µM in test [1]; less than 0.5 µM in test [2]; 0.037 µM in test [3]; greater than 1 µM in test [4]; 6 µM in test [5]; 0.085 µM in test [6].

On to `OCC(Cc1ccc(-n2cc(-c3ccnc4[nH]cnc34)cn2)nc1)C(F)(F)F` (stereo not drawn) [Example 1191, 3-(6-(4-(3H-imidazo[4,5-b]pyridin-7-yl)-1H-pyrazol-1-yl)pyridin-3-yl)-2-(trifluoromethyl)propan-1-ol], for which the IC50 in test [1] is greater than 1 µM; in test [2], less than 0.1 µM; in test [3], less than 0.1 µM; in test [4], greater than 1 µM; in test [5], greater than 1 µM; in test [6], less than 0.1 µM.

Regarding `N#CCc1cccc(-n2cc(-c3ccnc4[nH]cnc34)cn2)c1` [Example 1106, 2-(3-(4-(3H-imidazo[4,5-b]pyridin-7-yl)-1H-pyrazol-1-yl)phenyl)acetonitrile], the IC50 in test [1] is greater than 10 µM; in test [2], less than 0.5 µM; in test [3] it was less than 0.5 µM; in test [4], greater than 1 µM; in test [5], greater than 1 µM; in test [6], less than 0.5 µM.

Regarding `NS(=O)(=O)CCC(c1ccc(-n2cc(-c3ccnc4[nH]cnc34)cn2)nc1)C(F)(F)F` (stereo not drawn) [Example 1141, 3-(6-(4-(3H-imidazo[4,5-b]pyridin-7-yl)-1H-pyrazol-1-yl)pyridin-3-yl)-4,4,4-trifluorobutane-1-sulfonamide], the IC50 in test [1] is greater than 10 µM; in test [2], less than 0.1 µM; in test [3], less than 0.1 µM; in test [4], greater than 1 µM; in test [5], less than 1 µM; in test [6] it was less than 0.1 µM.

Take `N#CC1CC(NC(=O)n2cc(-c3ccnc4[nH]c(=O)[nH]c34)cn2)C1` (stereo not drawn) [Example 1056, N-(3-cyanocyclobutyl)-4-(2,3-dihydro-2-oxo-1H-imidazo[4,5-b]pyridin-7-yl)-1H-Pyrazole-1-carboxamide]: the IC50 in test [1] is greater than 10 µM; in test [2], less than 0.5 µM; in test [3], less than 0.5 µM; in test [4], greater than 0.5 µM; in test [5] it was greater than 10 µM; in test [6], less than 0.5 µM.

Regarding `CC(C(N)=O)c1ccc(-n2cc(-c3ccnc4[nH]cnc34)cn2)nc1` (stereo not drawn) [Example 1108, 2-(6-(4-(3H-imidazo[4,5-b]pyridin-7-yl)-1H-pyrazol-1-yl)pyridin-3-yl)propanamide], the IC50 in test [1] is greater than 10 µM; in test [2], greater than 0.1 µM; in test [3], greater than 0.1 µM; in test [4] it was greater than 1 µM; in test [5], greater than 10 µM; in test [6] it was greater than 0.5 µM.

For the origin of these results see patent US12516056B2, “Compounds for inhibition of janus kinase 1” (MANKIND PHARMA LTD., priority 2019, dated 2026).
